As a reminder, the IC50 is the concentration at which inhibition is half-maximal.

In ChEMBL document CHEMBL4840303, “Design, synthesis, biological evaluation and pharmacophore model analysis of novel tetrahydropyrrolo[3,4-c]pyrazol derivatives as potential TRKs inhibitors” (Eur J Med Chem, 2021) one finds IC50 data, which are given here for 42 compounds.

Test [1] has as its target High affinity nerve growth factor receptor (Homo sapiens, UniProt P04629). The experiment in a line: Inhibition of N-terminal GST-tagged human TRKA (436 to 790 residues) expressed in baculovirus infected Sf21 cells using TK as substrate in presence of ATP measured after 30 mins by HTRF assay.
A further test concerns A549. The experiment in a line: cells. The conditions noted are these: Homo sapiens, A549, 72 h.
For test [2], the target named is T1, BDNF/NT-3 growth factors receptor (Homo sapiens, UniProt Q16620). Briefly: Inhibition of N-terminal GST-tagged human TRKB (456 to 822 residues) expressed in baculovirus infected Sf21 cells using TK as substrate in presence of ATP measured after 40 mins by HTRF assay. Background: TR-FRET usually uses a lanthanide donor and a delayed reading to cut background.

The next test deals with KM12. The experiment in a line: cells. The note with it: Homo sapiens, KM12, 72 h.
A further test relates to THLE-2. The experiment in a line: cells. The note with it: Homo sapiens, THLE-2, 72 h.
Test [3] concerns the target NT-3 growth factor receptor (Homo sapiens, UniProt Q16288). Briefly: Inhibition of NT3-activated full length TRKC (unknown origin) by Cell-based beta-galactosidase PathHunter assay.
The target of test [4] is T1, BDNF/NT-3 growth factors receptor. The experiment in a line: Inhibition of BDNF-activated full length TRKB (unknown origin) by Cell-based beta-galactosidase PathHunter assay.

T1 sequence (Q16620 whole entry, the tested form may be a part): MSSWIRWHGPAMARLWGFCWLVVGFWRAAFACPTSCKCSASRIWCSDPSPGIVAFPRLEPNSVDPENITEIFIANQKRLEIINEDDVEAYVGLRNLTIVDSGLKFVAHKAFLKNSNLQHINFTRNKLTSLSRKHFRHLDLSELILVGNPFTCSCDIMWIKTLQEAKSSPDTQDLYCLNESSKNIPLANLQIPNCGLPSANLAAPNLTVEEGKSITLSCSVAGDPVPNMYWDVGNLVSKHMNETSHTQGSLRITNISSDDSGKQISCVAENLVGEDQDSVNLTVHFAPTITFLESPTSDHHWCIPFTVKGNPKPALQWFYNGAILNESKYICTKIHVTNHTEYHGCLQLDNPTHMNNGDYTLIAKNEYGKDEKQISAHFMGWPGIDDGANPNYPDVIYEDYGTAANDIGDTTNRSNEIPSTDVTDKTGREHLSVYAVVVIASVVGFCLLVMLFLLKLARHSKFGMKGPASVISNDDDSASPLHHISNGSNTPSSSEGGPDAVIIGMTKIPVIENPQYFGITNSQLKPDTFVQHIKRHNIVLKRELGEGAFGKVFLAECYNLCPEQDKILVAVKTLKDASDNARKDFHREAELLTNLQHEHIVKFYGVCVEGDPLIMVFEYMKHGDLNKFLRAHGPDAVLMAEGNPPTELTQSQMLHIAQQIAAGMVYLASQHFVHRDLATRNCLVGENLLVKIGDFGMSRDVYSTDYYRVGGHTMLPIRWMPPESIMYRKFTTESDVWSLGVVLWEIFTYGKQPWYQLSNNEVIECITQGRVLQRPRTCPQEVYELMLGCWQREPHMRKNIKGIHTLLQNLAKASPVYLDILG
Chain of High affinity nerve growth factor receptor (P04629 whole entry, the tested form may be a part): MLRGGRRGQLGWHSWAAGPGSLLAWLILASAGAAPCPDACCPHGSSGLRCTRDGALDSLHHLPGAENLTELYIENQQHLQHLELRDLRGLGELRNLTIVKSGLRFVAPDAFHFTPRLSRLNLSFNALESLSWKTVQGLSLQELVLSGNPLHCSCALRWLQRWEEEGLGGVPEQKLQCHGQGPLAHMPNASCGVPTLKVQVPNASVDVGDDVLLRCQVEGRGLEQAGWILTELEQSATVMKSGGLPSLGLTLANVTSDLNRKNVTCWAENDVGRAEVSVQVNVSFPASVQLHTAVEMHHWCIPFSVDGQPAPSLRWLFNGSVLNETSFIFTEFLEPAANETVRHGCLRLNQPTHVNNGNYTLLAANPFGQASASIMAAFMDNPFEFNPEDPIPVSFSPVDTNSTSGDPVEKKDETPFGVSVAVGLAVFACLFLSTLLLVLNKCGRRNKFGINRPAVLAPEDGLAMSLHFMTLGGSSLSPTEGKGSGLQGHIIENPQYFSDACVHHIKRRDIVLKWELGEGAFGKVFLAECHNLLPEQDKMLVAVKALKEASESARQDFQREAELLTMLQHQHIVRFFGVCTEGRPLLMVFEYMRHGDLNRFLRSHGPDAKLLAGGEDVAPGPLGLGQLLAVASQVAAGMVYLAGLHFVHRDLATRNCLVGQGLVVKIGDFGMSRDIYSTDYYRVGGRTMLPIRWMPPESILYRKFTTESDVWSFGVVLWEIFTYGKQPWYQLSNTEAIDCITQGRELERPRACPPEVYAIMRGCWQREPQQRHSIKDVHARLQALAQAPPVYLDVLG
Chain of NT-3 growth factor receptor (Q16288 whole entry): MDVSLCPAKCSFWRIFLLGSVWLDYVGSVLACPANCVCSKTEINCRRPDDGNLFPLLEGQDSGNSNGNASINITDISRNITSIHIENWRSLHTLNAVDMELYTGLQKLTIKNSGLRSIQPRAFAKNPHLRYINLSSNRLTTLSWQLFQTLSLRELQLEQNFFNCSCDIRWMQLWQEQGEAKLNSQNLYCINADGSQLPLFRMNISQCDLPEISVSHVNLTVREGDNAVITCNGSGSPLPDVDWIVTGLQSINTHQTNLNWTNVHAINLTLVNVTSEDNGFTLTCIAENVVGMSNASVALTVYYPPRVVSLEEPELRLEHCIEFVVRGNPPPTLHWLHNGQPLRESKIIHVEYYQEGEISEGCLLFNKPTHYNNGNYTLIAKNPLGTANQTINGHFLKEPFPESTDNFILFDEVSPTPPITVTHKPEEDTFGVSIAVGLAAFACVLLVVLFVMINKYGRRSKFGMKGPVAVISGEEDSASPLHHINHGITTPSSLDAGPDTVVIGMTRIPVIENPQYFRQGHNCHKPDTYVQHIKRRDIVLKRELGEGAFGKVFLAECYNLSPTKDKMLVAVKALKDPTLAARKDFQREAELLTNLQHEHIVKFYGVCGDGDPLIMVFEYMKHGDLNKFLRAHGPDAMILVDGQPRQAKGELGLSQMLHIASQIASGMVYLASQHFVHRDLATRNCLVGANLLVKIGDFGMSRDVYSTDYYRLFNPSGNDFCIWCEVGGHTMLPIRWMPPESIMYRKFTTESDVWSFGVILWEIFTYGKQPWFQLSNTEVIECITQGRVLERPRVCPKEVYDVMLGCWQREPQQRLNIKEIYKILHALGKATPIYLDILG
Description for A549: Antiproliferative activity against human A549 cells assessed as inhibition of cell growth measured after 72 hrs by CCK-8 assay
Description for KM12: Antiproliferative activity against human KM12 cells assessed as inhibition of cell growth measured after 72 hrs by CCK-8 assay
Description for THLE-2: Antiproliferative activity against human THLE-2 cells assessed as inhibition of cell growth measured after 72 hrs by CCK-8 assay

As to `CC1(C)c2[nH]nc(NC(=O)c3ccc(Br)cc3)c2CN1Cc1cc(F)cc(F)c1`, in test [1], the IC50 turned out to be 710 nM.

For the compound `CC1(C)c2[nH]nc(NC(=O)c3ccccc3)c2CN1Cc1ccccc1`, the IC50 in test [1] turned out to be 1240 nM.

As for `COc1cccc(CN2Cc3c(NC(=O)c4ccccc4)n[nH]c3C2(C)C)c1`, the half-maximal inhibitory concentration (IC50) in test [1] came to 1120 nM.

With `CC1(C)c2[nH]nc(NC(=O)c3ccc(F)cc3)c2CN1Cc1cccc(F)c1F`, the IC50 in test [1] was determined as 210 nM.

On to `CN1CCN(c2ccc(C(=O)Nc3n[nH]c4c3CN(Cc3cccc(F)c3F)C4(C)C)cc2)CC1`, for which the IC50 in the test with A549 is 64.2 µM; in test [2], 23 nM; in the test with KM12 it was 216 nM; in the test on THLE-2 it was greater than 100 µM; in test [1] it was 17 nM.

Consider `CC1(C)c2[nH]nc(NC(=O)c3ccccc3)c2CN1Cc1cccc(Cl)c1`, for which, in test [1], the IC50 was 670 nM.

Turning to `CC1(C)c2[nH]nc(NC(=O)c3ccccc3)c2CN1Cc1ccccc1F`, the IC50 in test [1] turned out to be 450 nM.

Regarding `Cc1ccc(F)c(CN2Cc3c(NC(=O)c4ccccc4)n[nH]c3C2(C)C)c1`, the IC50 in test [1] was 880 nM.

With `CC1(C)c2[nH]nc(NC(=O)c3ccccc3)c2CN1Cc1cc(C(F)(F)F)cc(C(F)(F)F)c1`, the half-inhibitory concentration (IC50) in test [1] came out at 16400 nM.

Turning to `CN(C)c1ccc(C(=O)Nc2n[nH]c3c2CN(Cc2cc(F)cc(F)c2)C3(C)C)cc1`, in test [1], the half-maximal inhibitory concentration (IC50) is 96 nM.

For the compound `CN(C)c1ccc(C(=O)Nc2n[nH]c3c2CN(Cc2cccc(F)c2F)C3(C)C)cc1`, in test [1], the half-inhibitory concentration (IC50) is 69 nM.

Regarding `Cc1ccc(CN2Cc3c(NC(=O)c4ccccc4)n[nH]c3C2(C)C)cc1F`, the concentration for half-maximal inhibition (IC50) in test [1] was 940 nM.

For the compound `CC1(C)c2[nH]nc(NC(=O)c3ccc(Br)cc3)c2CN1Cc1cccc(F)c1F`, the IC50 in test [1] was found to be 950 nM.

Turning to `Cc1cccc(CN2Cc3c(NC(=O)c4ccccc4)n[nH]c3C2(C)C)c1`, in test [1], the IC50 was determined as 1100 nM.

As for `CC1(C)c2[nH]nc(NC(=O)c3ccccc3)c2CN1Cc1cccc(F)c1F`, the IC50 in test [1] is 200 nM.

In the case of `CC1(C)c2[nH]nc(NC(=O)c3ccccc3)c2CN1Cc1cccc(C#N)c1`, the half-maximal inhibitory concentration (IC50) in test [1] was determined as 980 nM.

Turning to `CC1(C)c2[nH]nc(NC(=O)c3ccccc3)c2CN1Cc1cccc([N+](=O)[O-])c1`, in test [1], the IC50 amounted to 600 nM.

In the case of `Cc1ncc(NC(=O)NC2c3ccccc3-c3ccccc32)c(-c2ccccc2)n1`, the IC50 was 2500 nM in test [3] and greater than 8.1 µM in test [4].

Regarding `CC1(C)c2[nH]nc(NC(=O)c3ccccc3)c2CN1Cc1cc(F)cc(C(F)(F)F)c1`, the half-maximal inhibitory concentration (IC50) in test [1] amounted to 1000 nM.

For `CC1(C)c2[nH]nc(NC(=O)c3ccccc3)c2CN1Cc1cc(F)ccc1F`, in test [1], the IC50 came out at 480 nM.

For `CN1CCN(c2cccc(C(=O)Nc3n[nH]c4c3CN(Cc3cc(F)cc(F)c3)C4(C)C)c2)CC1`, the results for the IC50 (in test [2]; in the test on KM12; in test [1]) were 190 nM, greater than 1000 nM and 150 nM, respectively.

Take `CC1(C)c2[nH]nc(NC(=O)c3ccc4ncccc4c3)c2CN1Cc1cc(F)cc(F)c1`: in test [1], the IC50 was found to be 180 nM.

With `CC1(C)c2[nH]nc(NC(=O)c3ccc4ccccc4c3)c2CN1Cc1cc(F)cc(F)c1`, the IC50 in test [1] was determined as 440 nM.

For `CC1(C)c2[nH]nc(NC(=O)c3ccccc3)c2CN1Cc1cc(F)cc(F)c1`, the half-maximal inhibitory concentration (IC50) in test [1] is 190 nM.

In the case of `CN(C)c1cccc(C(=O)Nc2n[nH]c3c2CN(Cc2cc(F)cc(F)c2)C3(C)C)c1`, the half-inhibitory concentration (IC50) in test [1] amounted to 270 nM.

Regarding `CN1CCN(c2cccc(C(=O)Nc3n[nH]c4c3CN(Cc3cccc(F)c3F)C4(C)C)c2)CC1`, in test [1], the IC50 worked out at 210 nM.

Consider `CC1(C)c2[nH]nc(NC(=O)c3ccccc3)c2CN1Cc1ccc(F)cc1`, for which, in test [1], the IC50 worked out at 1180 nM.

`CC1(C)c2[nH]nc(NC(=O)c3ccc(F)cc3)c2CN1Cc1cc(F)cc(F)c1`: the 50% inhibitory concentration (IC50) in test [1] is 350 nM.

As to `CC1(C)c2[nH]nc(NC(=O)c3ccc(N4CCOCC4)cc3)c2CN1Cc1cc(F)cc(F)c1`, the IC50 in the test with A549 is greater than 100 µM; in test [2] it was 27 nM; in the test with KM12, 211 nM; in the test with THLE-2, greater than 100 µM; in test [1], 14 nM.

With `CC1(C)c2[nH]nc(NC(=O)c3cccc(N4CCOCC4)c3)c2CN1Cc1cccc(F)c1F`, the 50% inhibitory concentration (IC50) in test [1] was determined as 270 nM.

As for `CC1(C)c2[nH]nc(NC(=O)c3ccccc3)c2CN1Cc1cccc(Br)c1`, the concentration for half-maximal inhibition (IC50) in test [1] came to 940 nM.

In the case of `CC1(C)c2[nH]nc(NC(=O)c3ccc4ccccc4c3)c2CN1Cc1cccc(F)c1F`, the IC50 in test [1] was 460 nM.

Turning to `CC1(C)c2[nH]nc(NC(=O)c3ccccc3)c2CN1Cc1cccc(I)c1`, in test [1], the IC50 worked out at 1360 nM.

Take `CC1(C)c2[nH]nc(NC(=O)c3ccccc3)c2CN1Cc1cc(F)c(F)c(F)c1`: the IC50 in test [1] was 6960 nM.

On to `CC1(C)c2[nH]nc(NC(=O)c3ccc(N4CC[N+](C)(Cc5cc(F)cc(F)c5)CC4)cc3)c2CN1Cc1cc(F)cc(F)c1`, for which the IC50 in test [1] was determined as 95 nM.

Turning to `CC1(C)c2[nH]nc(NC(=O)c3ccccc3)c2CN1Cc1cccc(F)c1`, the IC50 in test [1] was determined as 470 nM.

Turning to `CC1(C)c2[nH]nc(NC(=O)c3ccccc3)c2CN1Cc1ccc(F)c(F)c1`, the concentration for half-maximal inhibition (IC50) in test [1] came out at 680 nM.

On to `CN(C)c1cccc(C(=O)Nc2n[nH]c3c2CN(Cc2cccc(F)c2F)C3(C)C)c1`, for which the IC50 in test [1] is 420 nM.

Take `CC1(C)c2[nH]nc(NC(=O)c3ccc(N4CCOCC4)cc3)c2CN1Cc1cccc(F)c1F`: the 50% inhibitory concentration (IC50) in the test on A549 turned out to be 88.5 µM; in test [2], 35 nM; in the test with KM12 it was 146 nM; with THLE-2 it was 49.5 µM; in test [1], 29 nM.

For `CC1(C)c2[nH]nc(NC(=O)c3cccc(N4CCOCC4)c3)c2CN1Cc1cc(F)cc(F)c1`, the IC50 was 170 nM in test [2], greater than 1000 nM in the test on KM12 and 120 nM in test [1].

Regarding `CC1(C)c2[nH]nc(NC(=O)c3ccccc3)c2CN1Cc1ccc(F)cc1F`, the IC50 in test [1] was 2320 nM.

On to `CC1(C)c2[nH]nc(NC(=O)c3ccccc3)c2CN1Cc1c(F)cccc1F`, for which, in test [1], the half-maximal inhibitory concentration (IC50) turned out to be 520 nM.
